Columns and labels:
Set-up in all cases: key: 0 = no effect, 10 = maximum effect; letter = response symbol
bush bean = experiment: Test A post-emergence; type: in vivo, bush beans; conditions: 0.4 kg/ha
morningglory [1] = experiment: Test A post-emergence; type: in vivo, Ipomoea spp.; conditions: 0.4 kg/ha
Description: (§1) The activity of these compounds was discovered in a number of greenhouse and field tests. The ratings are based on a numerical scale extending from 0=no effect, to 10=maximum effect. The accompanying descriptive symbols have the following meanings:
(§2) Seeds of crabgrass (Digitaria spp.), barnyardgrass (Echinochloa crusgalli), wild oats (Avena fatua), cassia (Cassia tora), morningglory (Ipomoea spp.), cocklebur (Xanthium spp.), sorghum, corn, soybean, rice, wheat and nutsedge tubers (Cyperus rotundus) were planted in a growth medium and treated preemergence with a nonphytotoxic solvent solution of the compounds of Table XII. Other batches of seeds and tubers for all of the foregoing weed and crop plants were planted at the same time as controls. The control plantings were untreated; i.e., neither any compound nor any solvent was applied. At the same time, cotton having five leaves (including cotyledonary ones), bush beans with the third trifoliate leaf expanding, crabgrass with two leaves, barnyardgrass with two leaves, wild oats with two leaves, cassia with three leaves (including cotyledonary ones), morningglory with four leaves (including the cotyledonary ones), cocklebur with four leaves (including the cotyledonary ones), sorghum with four leaves, corn with four leaves, soybean with two cotyledonary leaves, rice with three leaves, wheat with one leaf, and nutsedge with three-five leaves were sprayed with a nonphytotoxic solvent solution of the compounds of Table XII. Other groups of all the same weed and crop plants were sprayed with the same nonphytotoxic solvent so as to provide control plants. Preemergence and postemergence treated plants and controls were maintained in a greenhouse for sixteen days, then all treated plants were compared with their respective controls and rated visually for response to treatment.

cocklebur [2] = experiment: Test A post-emergence; type: in vivo, Xanthium spp.; conditions: 0.4 kg/ha
Description: as §1, §2

wild oats [3] = experiment: Test A post-emergence; type: in vivo, Avena fatua; conditions: 0.4 kg/ha
Description: as §1, §2

wheat [4] = experiment: Test A post-emergence; type: in vivo; conditions: 0.4 kg/ha
Description: as §1, §2

cassia [5] = experiment: Test A post-emergence; type: in vivo, Cassia tora; conditions: 0.4 kg/ha
Description: as §1, §2

nutsedge = experiment: Test A post-emergence; type: in vivo, Cyperus rotundus; conditions: 0.4 kg/ha
Description: as §1, §2

crabgrass [6] = experiment: Test A post-emergence; type: in vivo, Digitaria spp.; conditions: 0.4 kg/ha
Description: as §1, §2

morningglory [7] = experiment: Test A pre-emergence; type: in vivo, Ipomoea spp.
Description: as §1, §2

cocklebur [8] = experiment: Test A pre-emergence; type: in vivo, Xanthium spp.
Description: as §1, §2

cassia [9] = experiment: Test A pre-emergence; type: in vivo, Cassia tora
Description: as §1, §2

crabgrass [10] = experiment: Test A pre-emergence; type: in vivo, Digitaria spp.
Description: as §1, §2

barnyardgrass [11] = experiment: Test A pre-emergence; type: in vivo, Echinochloa crusgalli
Description: as §1, §2

sorghum [12] = experiment: Test A pre-emergence; type: in vivo
Description: as §1, §2

soybean [13] = experiment: Test A pre-emergence; type: in vivo
Description: as §1, §2

wheat [14] = experiment: Test A pre-emergence; type: in vivo
Description: as §1, §2

wild oats [15] = experiment: Test A pre-emergence; type: in vivo, Avena fatua; conditions: 0.4 kg/ha
Description: as §1, §2

barnyardgrass [16] = experiment: Test A post-emergence; type: in vivo, Echinochloa crusgalli; conditions: 0.4 kg/ha
Description: as §1, §2

corn = experiment: Test A post-emergence; type: in vivo; conditions: 0.4 kg/ha
Description: as §1, §2

sorghum [17] = experiment: Test A post-emergence; type: in vivo; conditions: 0.4 kg/ha
Description: as §1, §2

soybean [18] = experiment: Test A post-emergence; type: in vivo; conditions: 0.4 kg/ha
Description: as §1, §2

| Structure (SMILES) | response rating (morningglory [1]) [C] | response rating (morningglory [7]; 0.4 kg/ha) | response rating (cocklebur [8]; 0.4 kg/ha) | response rating (cassia [9]; 0.4 kg/ha) [G] | response rating (crabgrass [10]; 0.4 kg/ha) | response rating (barnyardgrass [11]; 0.4 kg/ha) [H] | response rating (sorghum [12]; 0.4 kg/ha) | response rating (soybean [13]; 0.4 kg/ha) [H] | response rating (wheat [14]; 0.4 kg/ha) | response rating (wild oats [15]) | further results |
| --- | --- | --- | --- | --- | --- | --- | --- | --- | --- | --- | --- |
| COc1nc(C)nc(NC(=O)NS(=O)(=O)c2ccccc2C(=O)OC(C)CCl)n1 (centres unmarked) [drawing 459] | 10 |  |  |  |  |  |  |  |  |  | response rating (bush bean): 9C; response rating (cocklebur [2]): 9C; response rating (wild oats [3]): 3G; response rating (wheat [4]): 2G |
| CCCCCCCCCCOC(=O)c1ccccc1S(=O)(=O)NC(=O)Nc1nc(C)cc(OC)n1 [drawing 428] |  |  |  |  |  |  |  |  |  |  | response rating (cassia [5]): 5G; response rating (nutsedge): 7G; response rating (crabgrass [6]): 0; response rating (wild oats [3]): 5G; response rating (wheat [4]): 3C |
| C=CCOC(=O)c1ccccc1S(=O)(=O)NC(=O)Nc1nc(C)nc(OC)n1 [drawing 518] |  | 9G | 9G | 9 | 9H | 9 | 10H | 9 | 9H |  |  |
| COC(=O)c1ccccc1S(=O)(=O)NC(=O)Nc1nc(OC)nc(OCC(F)(F)F)n1 [drawing 540] |  | 9G | 9G | 9 | 2G |  |  | 9 | 6G |  |  |
| CCC(C)OC(=O)c1ccccc1S(=O)(=O)NC(=O)Nc1nc(C)cc(OC)n1 (centres unmarked) [drawing 424] | 10 |  |  |  |  |  |  |  |  |  | response rating (cocklebur [2]): 9C; response rating (nutsedge): 8G; response rating (crabgrass [6]): 0; response rating (wild oats [3]): 8G |
| COC(=O)c1ccccc1S(=O)(=O)NC(=O)Nc1nc(C)nc(OC)n1 [drawing 482] |  | 9H | 9G | 9 |  | 9 | 9H | 9 | 9H | 9H |  |
| CCOC(=O)c1ccccc1S(=O)(=O)NC(=O)Nc1nc(OC)cc(OC)n1 [drawing 508] |  |  |  |  |  |  |  |  |  |  | response rating (cocklebur [8]; 2 kg/ha): 9G; response rating (cassia [9]; 2 kg/ha): 9G; response rating (crabgrass [10]; 2 kg/ha): 9H; response rating (barnyardgrass [11]; 2 kg/ha): 9H; response rating (sorghum [12]; 2 kg/ha): 10H; response rating (soybean [13]; 2 kg/ha): 9H; response rating (wheat [14]; 2 kg/ha): 9H |
| COc1cc(C)nc(NC(=O)NS(=O)(=O)c2ccccc2C(=O)CCC(C)C)n1 [drawing 449] | 10 |  |  |  |  |  |  |  |  |  | response rating (bush bean): 10D; response rating (barnyardgrass [16]): 9C; response rating (corn): 9H |
| COc1cc(OC)nc(NC(=O)NS(=O)(=O)c2ccccc2C(=O)OCCCl)n1 [drawing 487] |  | 9G | 9G |  |  | 9 | 9H | 9 | 9G | 9G |  |
| COC(=O)c1cc(Cl)ccc1S(=O)(=O)NC(=O)Nc1nc(OC)nc(OC)n1 [drawing 435] | 10 |  |  |  |  |  |  |  |  |  | response rating (cocklebur [2]): 10C; response rating (nutsedge): 10C; response rating (crabgrass [6]): 1C; response rating (barnyardgrass [16]): 3G; response rating (wild oats [3]): 0; response rating (corn): 9H; response rating (sorghum [17]): 8H; response rating (wheat [4]): 0 |
| COC(=O)c1cc([N+](=O)[O-])ccc1S(=O)(=O)NC(=O)Nc1nc(C)cc(OC)n1 [drawing 462] | 9 |  |  |  |  |  |  |  |  |  | response rating (bush bean): 9C; response rating (cocklebur [2]): 9C; response rating (cassia [5]): 9C; response rating (nutsedge): 9G |
| COc1cc(OC)nc(NC(=O)NS(=O)(=O)c2ccccc2C(=O)OC2CCCCC2)n1 [drawing 431] | 9 |  |  |  |  |  |  |  |  |  | response rating (cocklebur [2]): 9C; response rating (cassia [5]): 1C; response rating (corn): 7H; response rating (sorghum [17]): 8H; response rating (wheat [4]): 1C |
| COC(=O)c1cc(Cl)ccc1S(=O)(=O)NC(=O)Nc1nc(C)cc(OC)n1 [drawing 501] |  | 9G | 9H |  |  | 9 | 9H | 9 | 8H | 9G |  |
| CCC(C)OC(=O)c1ccccc1S(=O)(=O)NC(=O)Nc1nc(C)cc(OC)n1 (centres unmarked) [drawing 491] |  | 9G |  | 9 | 6G | 9 | 9H | 9 | 9G |  |  |
| COc1cc(OC)nc(NC(=O)NS(=O)(=O)c2ccccc2C(=O)OC(C)C)n1 [drawing 503] |  | 9G |  |  | 8G |  |  |  | 7G | 7G |  |
| COC(=O)c1cc(Cl)ccc1S(=O)(=O)NC(=O)Nc1nc(OC)nc(OC)n1 [drawing 502] |  | 9G | 9G |  | 1C |  | 9H | 9 | 1C | 8G |  |
| COc1nc(NC(=O)NS(=O)(=O)c2ccccc2C(=O)OC(C)C)nc(OC)n1 [drawing 505] |  |  |  |  | 7G |  |  |  | 7G | 8G |  |
| COc1cc(C)nc(NC(=O)NS(=O)(=O)c2ccccc2C(=O)NCc2ccccc2)n1 [drawing 531] |  | 9G | 8G | 9 |  | 9 |  | 9 | 9H | 3C |  |
| COC(=O)c1ccccc1S(=O)(=O)NC(=O)Nc1nc(C)cc(C)n1 [drawing 479] |  | 9G | 9G | 8 | 9G | 9 |  | 9 | 9H |  | response rating (morningglory [7]; 2 kg/ha): 9G; response rating (cocklebur [8]; 2 kg/ha): 9G; response rating (cassia [9]; 2 kg/ha): 9G; response rating (crabgrass [10]; 2 kg/ha): 9G; response rating (barnyardgrass [11]; 2 kg/ha): 9H; response rating (soybean [13]; 2 kg/ha): 9H; response rating (wheat [14]; 2 kg/ha): 9H |
| CCOC(=O)c1ccccc1S(=O)(=O)NC(=O)Nc1nc(OC)cc(OC)n1 [drawing 509] |  |  | 9G | 9 |  | 9 | 9H | 9 | 9H | 9G |  |
| COc1cc(C)nc(NC(=O)NS(=O)(=O)c2ccccc2C(=O)OC(C)C)n1 [drawing 504] |  | 9H |  |  | 8G |  |  |  | 9G | 8G |  |
| COc1nc(C)nc(NC(=O)NS(=O)(=O)c2ccccc2C(=O)OC(C)Cc2ccccc2)n1 (centres unmarked) [drawing 457] | 10 |  |  |  |  |  |  |  |  |  | response rating (bush bean): 9C; response rating (cocklebur [2]): 9C; response rating (cassia [5]): 10C; response rating (nutsedge): 7G; response rating (crabgrass [6]): 9C; response rating (barnyardgrass [16]): 9C; response rating (corn): 9C |
| CCCCCCCCCCCCNC(=O)c1ccccc1S(=O)(=O)NC(=O)Nc1nc(C)nc(OC)n1 [drawing 467] | 9 |  |  |  |  |  |  |  |  |  | response rating (nutsedge): 9G; response rating (soybean [18]): 9C |
| CCC(C)OC(=O)c1ccccc1S(=O)(=O)NC(=O)Nc1nc(OC)cc(OC)n1 (centres unmarked) [drawing 490] |  | 9G | 9G | 8 | 0 | 9 | 9G | 8 | 2G | 8G |  |
